Measured values: patent publication EP0154117B1 (dated 1985)

Experiments:
[1] = tested on: alloreactive cytolytic T lymphocytes (CTL); assay: Induction of alloreactive cytolytic T lymphocytes (CTL) in MLC, 51Cr-release microcytotoxicity assay with P815 target cells; format: cell-based, mouse; settings: for minimum doses required to cause a significant effect (CTL generation in MLC): compared to control CTL generated in drug-free MLC
B6 Lymphocytes [2] = assay: Proliferative response of mouse lymphocytes to alloantigens in mixed lymphocyte cultures (MLC); format: cell-based; settings: 10-^2 and 10^-4 µg/ml; one-way, 5-day MLC
B6 Mice [3] = assay: Suppressor cells in treated mice: lymphocytes of treated mice added to a conventional MLC; format: in vivo, mouse; settings: 3 mg/kg; lymphocytes obtained 5 weeks later; 1-5x10^6 cells added to MLC; dose related
B6 Lymphocytes [4] = assay: Proliferative responses of lymphocytes to Con A and LPS (3H-TdR incorporation); settings: 1 to 10-^2 µg/ml
B6 Mice [5] = assay: Immunosuppression in vivo: lymphocytes from treated mice stimulated in MLC and tested for CTL cytotoxicity; design: species or system mouse; settings: for cytotoxicity of effector cells from treated mice: after 30 days of treatment

## COc1cccc2c1C(=O)c1c(O)c3c(c(O)c1C2=O)C[C@@](O)(C(=O)CO)C[C@@H]3O[C@H]1C[C@H](N)[C@H](O)[C@H](C)O1 [Adriamycin, reference compound]
[1]
  minimum doses required to cause a significant effect (CTL generation in MLC): 10^-1 µg/ml

## Cl.Cl.NCCNc1ccc(NCCN)c2c1C(=O)c1c(O)ccc(O)c1C2=O
B6 Lymphocytes [2]
  proliferation of B6 lymphocytes stimulated by D2 lymphocytes: significantly prevented
B6 Mice [3]
  effect of cells from drug treated mice on CTL generation by normal lymphocytes: significantly prevented normal lymphocytes from becoming effective CTL
B6 Lymphocytes [4]
  proliferation of these cells (Con A or LPS stimulated): completely abolished
B6 Mice [5]; 0.3 mg/kg, day 23 post treatment
  CTL generation of lymphocytes from treated mice: typical CTL generation was evident
B6 Mice [5]; 3 mg/kg i.p., lymphocytes prepared 2 weeks later, 5-day MLC, all E:T ratios tested
  CTL generation by lymphocytes from drug-treated mice: failed to become effective CTL
B6 Mice [5]; 0.3 and 0.75 mg/kg
  cytotoxicity of effector cells from treated mice: normal level of cytotoxicity
B6 Mice [5]; 0.3 to 3.0 mg/kg, day 10 after treatment
  CTL activity of lymphocytes from treated mice: no CTL activity
B6 Mice [5]; 1.5 an 3.0 mg/kg
  cytotoxicity of effector cells from treated mice: still unable to do so
[1]; 1 to 10-^4 µg/ml in MLC
  generation of CTL: complete failure to generate CTL
[1]; 10-^3 µg/ml added 2 days after setting up MLC, p < 0.001 vs control (% lysis = 52.0)
  % lysis (CTL activity): 22.0%
[1]; 10-^3 µg/ml added at the same time as initiation of MLC, control % lysis = 52.0
  % lysis (CTL activity): 2.7%
[1]; 10-^3 µg/ml added one day after initiation of MLC, control % lysis = 52.0
  % lysis (CTL activity): 6.4%
[1]; 10-^4 mcg/ml
  generation of CTL: consistent failure to generate CTL
[1]; 10-^5 mcg/mi added to MLC, p < 0.01 vs control CTL (% lysis = 45.7), 5 days
  % lysis (CTL activity): 37.0%
[1]; 10^-3 µg/ml, compound removed from 1 MLC each day by washing, CTL tested after five days
  duration of the suppressive effect (suppression after removal of compound): irreversible

## Cl.Cl.O=C1c2c(O)ccc(O)c2C(=O)c2c(NCCNCCO)ccc(NCCNCCO)c21 [Novantrone^TM, reference compound]
[1]
  minimum doses required to cause a significant effect (CTL generation in MLC): 10^-3 µg/ml
